Results: patent publication US20150218212A1, “FLUORINATED EPOXYKETONE-BASED TETRAPEPTIDE COMPOUNDS AND USES THEREOF AS PROTEASOME INHIBITORS” (FLUORINOV PHARMA INC., priority 2012, published 2015)

Assays:
Type in all cases: cell-based, human
OVCAR-5 = assay: NCI screening panel, OVCAR-5 (Ovarian Cancer)
Description: (§1) Representative compounds of Formula I were screened using the National Cancer Institute (NCI) screening panel, which consists of a panel of human tumor cell lines, representing leukemia, melanoma, and cancers of the lung, colon, ovary, breast, prostate and renal system.
(§2) After 24 h, two plates of each cell line are fixed in situ with TCA, to represent a measurement of the cell population for each cell line at the time of drug addition (Tz). Experimental drugs are solubilised in dimethyl sulfoxide at 400-fold the desired final maximum test concentration and stored frozen prior to use. At the time of drug addition, an aliquot of frozen concentrate is thawed and diluted to twice the desired final maximum test concentration with complete medium containing 50 μg/mL gentamicin. Additional four, 10-fold or ½ log serial dilutions are made to provide a total of five drug concentrations plus control. Aliquots of 100 μl of these different drug dilutions are added to the appropriate microtiter wells already containing 100 μl of medium, resulting in the required final drug concentrations.
(§3) Following drug addition, the plates are incubated for an additional 48 h at 37° C., 5% CO2, 95% air, and 100% relative humidity. For adherent cells, the assay is terminated by the addition of cold TCA (trichloroacetic acid). Cells are fixed in situ by the gentle addition of 50 μl of cold 50% (w/v) TCA (final concentration, 10% TCA) and incubated for 60 minutes at 4° C. The supernatant is discarded, and the plates are washed five times with tap water and air dried. Sulforhodamine B (SRB) solution (100 μl) at 0.4% (w/v) in 1% acetic acid is added to each well, and plates are incubated for 10 minutes at room temperature. After staining, unbound dye is removed by washing five times with 1% acetic acid and the plates are air dried. Bound stain is subsequently solubilised with 10 mM trizma base, and the absorbance is read on an automated plate reader at a wavelength of 515 nm. For suspension cells, the methodology is the same except that the assay is terminated by fixing settled cells at the bottom of the wells by gently adding 50 μl of 80% TCA (final concentration, 16% TCA). Using the seven absorbance measurements [time zero, (Tz), control growth, (C), and test growth in the presence of drug at the five concentration levels (Ti)], the percentage growth is calculated at each of the drug concentrations levels. Percentage growth inhibition is calculated as: [(Ti−Tz)/(C−Tz)]×100 for concentrations for which Ti>/=Tz and [(Ti−Tz)/Tz]×100 for concentrations for which Ti<Tz.
(§4) Three dose response parameters are calculated for each experimental agent. Growth inhibition of 50% (GI50) is calculated from [(Ti−Tz)/(C−Tz)]×100=50, which is the drug concentration resulting in a 50% reduction in the net protein increase (as measured by SRB staining) in control cells during the drug incubation. The drug concentration resulting in total growth inhibition (TGI) is calculated from Ti=Tz. The LC50 (concentration of drug resulting in a 50% reduction in the measured protein at the end of the drug treatment as compared to that at the beginning) indicating a net loss of cells following treatment is calculated from [(Ti−Tz)/Tz]×100=−50. Values are calculated for each of these three parameters if the level of activity is reached. However, if the effect is not reached or is exceeded, the value for that parameter is expressed as greater or less than the maximum or minimum concentration tested.

BT-549 = assay: NCI screening panel, BT-549 (Breast Cancer)
Description: as §1, §2, §3, §4

SK-MEL-5 = assay: NCI screening panel, SK-MEL-5 (Melanoma)
Description: as §1, §2, §3, §4

RXF 393 = assay: NCI screening panel, RXF 393 (Renal Cancer)
Description: as §1, §2, §3, §4

SN12C = assay: NCI screening panel, SN12C (Renal Cancer)
Description: as §1, §2, §3, §4

DU-145 = assay: NCI screening panel, DU-145 (Prostate Cancer)
Description: as §1, §2, §3, §4

MCF7 = assay: NCI screening panel, MCF7 (Breast Cancer)
Description: as §1, §2, §3, §4

SF-539 = assay: NCI screening panel, SF-539 (CNS Cancer)
Description: as §1, §2, §3, §4

HL-60(TB) = assay: NCI screening panel, HL-60(TB) (Leukemia)
Description: as §1, §2, §3, §4

NCI-H322M = assay: NCI screening panel, NCI-H322M (Non-Small Cell Lung Cancer)
Description: as §1, §2, §3, §4

HT29 = assay: NCI screening panel, HT29 (Colon Cancer)
Description: as §1, §2, §3, §4

OVCAR-8 = assay: NCI screening panel, OVCAR-8 (Ovarian Cancer)
Description: as §1, §2, §3, §4

SNB-75 = assay: NCI screening panel, SNB-75 (CNS Cancer)
Description: as §1, §2, §3, §4

CAKI-1 = assay: NCI screening panel, CAKI-1 (Renal Cancer)
Description: as §1, §2, §3, §4

HOP-62 = assay: NCI screening panel, HOP-62 (Non-Small Cell Lung Cancer)
Description: as §1, §2, §3, §4

MDA-MB-435 = assay: NCI screening panel, MDA-MB-435 (Melanoma)
Description: as §1, §2, §3, §4

SF-295 = assay: NCI screening panel, SF-295 (CNS Cancer)
Description: as §1, §2, §3, §4

UO-31 = assay: NCI screening panel, UO-31 (Renal Cancer)
Description: as §1, §2, §3, §4

U251 = assay: NCI screening panel, U251 (CNS Cancer)
Description: as §1, §2, §3, §4

In the case of `CC(C)C[C@H](NC(=O)[C@H](COC(F)F)NC(=O)CN1CCOCC1)C(=O)N[C@@H](Cc1ccccc1)C(=O)N[C@@H](CC(C)C)C(=O)[C@@]1(C)CO1` [Example 2, (2S)-N-[(1S)-1-benzyl-2-[[(1S)-3-methyl-1-[(2R)-2-methyloxirane-2-carbonyl]butyl]-amino]-2-oxo-ethyl]-2-[[(2S)-3-(difluoromethoxy)-2-[(2-morpholinoacetyl)amino]propanoyl]amino]-4-methyl-pentanamide], the Log10GI50 (OVCAR-5) is reported as −7.47, the Log10LC50 (OVCAR-5) is reported as −4.54 and the Log10TGI50 (OVCAR-5) is reported as −6.70. It also gave a Log10GI50 (BT-549) of less than −8.00, a Log10LC50 (BT-549) of −6.84 and a Log10TGI50 (BT-549) of −7.48. It also gave a Log10GI50 (SK-MEL-5) of −7.53, a Log10LC50 (SK-MEL-5) of −6.23 and a Log10TGI50 (SK-MEL-5) of −6.94. It also gave a Log10GI50 (RXF 393) of −7.52, a Log10LC50 (RXF 393) of −6.41 and a Log10TGI50 (RXF 393) of −6.98. The Log10GI50 (SN12C) was −7.40, the Log10LC50 (SN12C) was −4.92 and the Log10TGI50 (SN12C) was −6.64. The Log10GI50 (DU-145) was −7.34, the Log10LC50 (DU-145) was greater than −4.00 and the Log10TGI50 (DU-145) was −5.00. The Log10GI50 (MCF7) was less than -8.00, the Log10LC50 (MCF7) was greater than −4.00 and the Log10TGI50 (MCF7) was −4.94. For the same compound, the Log10GI50 (SF-539) was −7.87, the Log10LC50 (SF-539) was −7.06 and the Log10TGI50 (SF-539) was −7.46. For the same compound, the Log10GI50 (HL-60(TB)) was −7.55, the Log10LC50 (HL-60(TB)) was greater than −4.00 and the Log10TGI50 (HL-60(TB)) was −6.11. It also gave a Log10GI50 (NCI-H322M) of −7.01, a Log10LC50 (NCI-H322M) of −5.35 and a Log10TGI50 (NCI-H322M) of −6.43. The Log10GI50 (HT29) was less than −8.00, the Log10LC50 (HT29) was greater than −4.00 and the Log10TGI50 (HT29) was −7.04. It also gave a Log10GI50 (OVCAR-8) of −7.22, a Log10LC50 (OVCAR-8) greater than −4.00 and a Log10TGI50 (OVCAR-8) of −6.25. It also gave a Log10GI50 (SNB-75) of −7.75, a Log10LC50 (SNB-75) of −5.91 and a Log10TGI50 (SNB-75) of −7.30. For the same compound, the Log10GI50 (CAKI-1) was −6.68, the Log10LC50 (CAKI-1) was greater than −4.00 and the Log10TGI50 (CAKI-1) was −5.93. For the same compound, the Log10GI50 (HOP-62) was −7.90, the Log10LC50 (HOP-62) was −7.04 and the Log10TGI50 (HOP-62) was −7.47. It also gave a Log10GI50 (MDA-MB-435) of −7.99, a Log10LC50 (MDA-MB-435) of −7.14 and a Log10TGI50 (MDA-MB-435) of −7.56. For the same compound, the Log10GI50 (SF-295) was −7.80, the Log10LC50 (SF-295) was −6.42 and the Log10TGI50 (SF-295) was −7.28. It also gave a Log10GI50 (UO-31) of −6.49, a Log10LC50 (UO-31) of −5.01 and a Log10TGI50 (UO-31) of −5.80. The Log10GI50 (U251) was −7.72, the Log10LC50 (U251) was −5.63 and the Log10TGI50 (U251) was −6.87.

Compound `CC(C)C[C@H](NC(=O)[C@H](COC(F)F)NC(=O)CN1CCOCC1)C(=O)N[C@@H](Cc1ccccc1)C(=O)N[C@@H](Cc1ccccc1)C(=O)[C@@]1(C)CO1` [Example 3, (2S)-N-[(1S)-1-benzyl-2-[[(1S)-1-benzyl-2-[(2R)-2-methyloxiran-2-yl]-2-oxo-ethyl]amino]-2-oxo-ethyl]-2-[[(2S)-3-(difluoromethoxy)-2-[(2-morpholinoacetyl)-amino]propanoyl]amino]-4-methyl-pentan-amide] has a Log10GI50 (OVCAR-5) of −7.42, a Log10LC50 (OVCAR-5) greater than −4.00 and a Log10TGI50 (OVCAR-5) of −5.86. It also gave a Log10GI50 (BT-549) of less than −8.00, a Log10LC50 (BT-549) of −4.21 and a Log10TGI50 (BT-549) of −7.32. For the same compound, the Log10GI50 (SK-MEL-5) was −7.71, the Log10LC50 (SK-MEL-5) was −6.43 and the Log10TGI50 (SK-MEL-5) was −7.19. For the same compound, the Log10GI50 (RXF 393) was −7.64, the Log10LC50 (RXF 393) was −6.58 and the Log10TGI50 (RXF 393) was −7.18. It also gave a Log10GI50 (SN12C) of −7.68, a Log10LC50 (SN12C) of −6.24 and a Log10TGI50 (SN12C) of −6.85. The Log10GI50 (DU-145) was less than −8.00, the Log10LC50 (DU-145) was −4.48 and the Log10TGI50 (DU-145) was −5.79. The Log10GI50 (MCF7) was less than −8.00, the Log10LC50 (MCF7) was greater than −4.00 and the Log10TGI50 (MCF7) was −4.65. For the same compound, the Log10GI50 (SF-539) was less than −8.00, the Log10LC50 (SF-539) was −4.07 and the Log10TGI50 (SF-539) was −7.42. The Log10GI50 (HL-60(TB)) was −7.83, the Log10LC50 (HL-60(TB)) was greater than −4.00 and the Log10TGI50 (HL-60(TB)) was −6.67. It also gave a Log10GI50 (NCI-H322M) of −7.12, a Log10LC50 (NCI-H322M) of −5.14 and a Log10TGI50 (NCI-H322M) of −6.44. It also gave a Log10GI50 (HT29) of less than −8.00, a Log10LC50 (HT29) of −4.44 and a Log10TGI50 (HT29) of −6.25. For the same compound, the Log10GI50 (OVCAR-8) was −7.25, the Log10LC50 (OVCAR-8) was greater than −4.00 and the Log10TGI50 (OVCAR-8) was −6.29. The Log10GI50 (SNB-75) was −7.66, the Log10LC50 (SNB-75) was −4.61 and the Log10TGI50 (SNB-75) was −7.11. The Log10GI50 (CAKI-1) was −7.11, the Log10LC50 (CAKI-1) was −4.92 and the Log10TGI50 (CAKI-1) was −6.30. The Log10GI50 (HOP-62) was less than −8.00, the Log10LC50 (HOP-62) was −4.76 and the Log10TGI50 (HOP-62) was −7.20. For the same compound, the Log10GI50 (MDA-MB-435) was less than −8.00, the Log10LC50 (MDA-MB-435) was −7.34 and the Log10TGI50 (MDA-MB-435) was −7.90. The Log10GI50 (SF-295) was −7.34, the Log10LC50 (SF-295) was −6.24 and the Log10TGI50 (SF-295) was −6.75. The Log10GI50 (UO-31) was −6.65, the Log10LC50 (UO-31) was −5.08 and the Log10TGI50 (UO-31) was −5.91. The Log10GI50 (U251) was less than −8.00, the Log10LC50 (U251) was −5.14 and the Log10TGI50 (U251) was −6.79.
